# According to patent publication US8962853B2, “Chemical probe compounds that become fluorescent upon reduction, and methods for their use” (Life Technologies Corporation, priority 2005, dated 2015):
# Columns and labels:
# [1] = test system: S. aureus; experiment: Electron transport system (ETS) inhibition assay; format: cell-based, Staphylococcus aureus; conditions: for fluorescence signal of stain, S. aureus: no ETS inhibitor (Untreated)
# Experimental: (§1) S. aureus and E. coli were treated with known inhibitors of the electron transport system (ETS) to determine if reductase moieties in the ETS would reduce exemplary stain compounds. […] The bacteria were diluted in PBS buffer and treated with the various ETS inhibitors, stained with 500 nM stain compound (18) for 10 minutes, and then analyzed by flow cytometry using a Becton Dickinson FACSCalibur™ instrument (Becton, Dickinson and Company; Franklin Lakes, N.J.) containing a 488 nm argon ion laser.
# (§2) Stain compound (19) was assayed according to the procedure outlined in Example 23.
# (§3) Stain compound (22) was assayed according to the procedure outlined in Example 23.
# (§4) Stain compound (24) was assayed according to the procedure outlined in Example 23.
# [2] = test system: E. coli; experiment: Electron transport system (ETS) inhibition assay; format: cell-based, Escherichia coli; conditions: for fluorescence signal of stain, E. coli: no ETS inhibitor (Untreated)
# Experimental: as §1, §2, §3, §4
# [3] = test system: B. subtilis; experiment: Titration series on cultured bacteria; format: cell-based, Bacillus subtilis; conditions: titration 10 nM to 1 uM
# Experimental: (§5) The x-axis represents the concentration of compound (18) in nM, while the y-axis represents FL1 GeoMean fluorescence.
# (§6) A titration series was performed on cultured bacteria. Chemical compound (18) was used at concentrations ranging from 10 nM to 1 uM for S. aureus and B. subtilis (FIG. 2), and 500 nM to 4 uM for E. coli and K. pneumoniae (FIG. 3).
# [4] = test system: E. coli; experiment: Titration series on cultured bacteria; format: cell-based, Escherichia coli; conditions: titration 500 nM to 4 uM; Gram-negative organisms tested
# Experimental: as §5, §6
# [5] = test system: K. pneumoniae; experiment: Staining of bacteria, flow cytometry; format: cell-based, Klebsiella pneumoniae; conditions: 500 nM, 10 minutes
# Experimental: (§7) Gram-positive and Gram-negative bacteria were labeled using compound (18). S. aureus and B. subtilis were used as examples of Gram-positive bacteria, and E. coli and K. pneumoniae were used as examples of Gram-negative bacteria. Cells were diluted in buffer to about 10^6 cells/mL. The bacteria were contacted with compound 18 (500 nM) for 10 minutes in Hank's Balanced Salt Solution (HBSS) or various other buffers such as PBS. The samples were analyzed by flow cytometry using a Becton Dickinson FACScan™ instrument (Becton, Dickinson and Company; Franklin Lakes, N.J.) containing a 488 nm argon ion laser. Cells were analyzed directly without washing, or optionally, were fixed with 1-4% formaldehyde prior to flow cytometric analysis.
# [6] = test system: S. aureus; experiment: Stability of fluorescence; format: cell-based, Staphylococcus aureus; conditions: monitored for one hour
# Experimental: (§8) Compound (18) was contacted with cultures of S. aureus, B. subtilis, E. coli, and K. pneumoniae. The fluorescence of the samples were monitored for one hour. The signal developed very quickly for S. aureus and B. subtilis, and stabilized within 10 minutes. The signal was stable for at least one hour (FIG. 6).
# [7] = test system: E. coli; experiment: Staining of bacteria, flow cytometry; format: cell-based, Escherichia coli; conditions: 500 nM, 10 minutes
# Experimental: as §7
# [8] = test system: S. aureus; experiment: Fixation assays (compatibility with fixed samples); format: cell-based, Staphylococcus aureus; conditions: 100 nM, 10 minutes, HBSS
# Experimental: A culture of S. aureus was grown to log-phase, and washed and diluted in HBSS to 10^6 cells per mL. Samples of 1 mL each were aliquotted to six flow cytometry tubes. CCCP was added to three of the samples at a final concentration of 10 μM. The samples were incubated for 1-5 minutes. Compound (18) was added at a final concentration of 100 nM, and the samples were allowed to sit for 10 minutes. The +/− CCCP tubes were divided into two sets: one set received 1 mL of 100% ethanol, and the other set received 100 µL of 10% formaldehyde (methanol-free). The samples were analyzed using a Becton Dickinson FACSCalibur as described in Example 23.
# [9] = test system: S. aureus; experiment: Time course treatments (growth and stain fluorescence); format: cell-based, Staphylococcus aureus; conditions: compound present in broth culture medium
# Experimental: Control samples that were untreated were also prepared.
# Samples were taken once every hour for six hours and stained with 500 nM compound (18) for 10 minutes, then analyzed by flow cytometry using a Becton Dickinson FACSCalibur™ instrument (Becton, Dickinson and Company; Franklin Lakes, N.J.) containing a 488 nm argon ion laser. Not only did the treated cells not proliferate, but the signal from the stain in treated samples decreased once the cells entered ‘log-growth’ phase as compared to the untreated control.
# [10] = test system: B. subtilis; experiment: Stability of fluorescence; format: cell-based, Bacillus subtilis; conditions: monitored for one hour
# Experimental: as §8
# [11] = test system: K. pneumoniae; experiment: Titration series on cultured bacteria; format: cell-based, Klebsiella pneumoniae; conditions: titration 500 nM to 4 uM; Gram-negative organisms tested
# Experimental: as §5, §6
# [12] = test system: B. subtilis; experiment: Staining of bacteria, flow cytometry; format: cell-based, Bacillus subtilis; conditions: 500 nM, 10 minutes
# Experimental: as §7
# [13] = test system: S. aureus; experiment: Staining of bacteria, flow cytometry; format: cell-based, Staphylococcus aureus; conditions: 500 nM, 10 minutes
# Experimental: as §7
# [14] = test system: S. aureus; experiment: Titration series on cultured bacteria; format: cell-based, Staphylococcus aureus; conditions: titration 10 nM to 1 uM
# Experimental: as §5, §6
# [15] = stained with compound (18) 500 nM, rotenone 1 mM, antimycin A 20 uM, azide 10 mM, CCCP 10 uM
# [16] = buffer Sodium chloride + 10 mM glucose
# [17] = stain compound (18) 500 nM, 10 minutes, PBS
compound,measurement,setting,value
CC1=C(C)C(=O)C(N2CCN(C(=O)CCCN(C)C3=C/C(=C\c4sc5ccccc5[n+]4C)C=CN3c3ccccc3)CC2)=C(C)C1=O [Compound 19],"fluorescence signal of stain, S. aureus",[1]; stain compound (19),248.1
same,"fluorescence signal of stain, E. coli",[2]; stain compound (19),59.78
CC1=C(NCCCN(C)C2=C/C(=C\c3sc4ccccc4[n+]3C)c3ccccc3N2c2ccccc2)C(=O)c2ccccc2C1=O [Compound 22],"fluorescence signal of stain, S. aureus",[1]; stain compound (22),594.12
same,"fluorescence signal of stain, E. coli",[2]; stain compound (22),90.91
CC1=C(C)C(=O)C(N(C)CCCN(C)C2=C/C(=C\c3sc4ccccc4[n+]3C)c3ccccc3N2c2ccccc2)=C(C)C1=O [Compound 24],"fluorescence signal of stain, S. aureus",[1]; stain compound (24),853.47
same,"fluorescence signal of stain, E. coli",[2]; stain compound (24),114.71
"N#CC(C#N)=NNc1cccc(Cl)c1 [CCCP, carbonyl cyanide m-chlorophenylhydrazone]","fluorescence signal after inhibitor treatment, S. aureus",[1]; [15],4.19
same,"fluorescence signal after inhibitor treatment, S. aureus",[1]; stained with compound (19),46.73
same,"fluorescence signal after inhibitor treatment, S. aureus",[1]; stained with compound (22),240.61
same,"fluorescence signal after inhibitor treatment, S. aureus",[1]; stained with compound (24),402.19
same,"fluorescence signal after inhibitor treatment, E. coli",[2]; [15],150.7
same,"fluorescence signal after inhibitor treatment, E. coli",[2]; stained with compound (19),12.59
same,"fluorescence signal after inhibitor treatment, E. coli",[2]; stained with compound (22),63.26
same,"fluorescence signal after inhibitor treatment, E. coli",[2]; stained with compound (24),152.7
antimycin A,"fluorescence signal after inhibitor treatment, S. aureus",[1]; [15],59.41
same,"fluorescence signal after inhibitor treatment, S. aureus",[1]; stained with compound (19),4.1
same,"fluorescence signal after inhibitor treatment, S. aureus",[1]; stained with compound (22),6.16
same,"fluorescence signal after inhibitor treatment, S. aureus",[1]; stained with compound (24),6.56
same,"fluorescence signal after inhibitor treatment, E. coli",[2]; [15],34.65
same,"fluorescence signal after inhibitor treatment, E. coli",[2]; stained with compound (19),12.4
same,"fluorescence signal after inhibitor treatment, E. coli",[2]; stained with compound (22),20.17
same,"fluorescence signal after inhibitor treatment, E. coli",[2]; stained with compound (24),26.28
CC1=C(C)C(=O)C(N2CCC(NC(=O)CCCN(C)C3=C/C(=C\c4sc5ccccc5[n+]4C)c4ccccc4N3c3ccccc3)CC2)=C(C)C1=O [Compound 18],optimal concentration for staining,[3],about 500 nM
same,preferred concentration for staining,[4],about 1 uM
same,FL1 GeoMean fluorescence,[5]; buffer HBSS,19.9
same,FL1 GeoMean fluorescence,[5]; buffer PBS + 1 mM EDTA,48.67
same,FL1 GeoMean fluorescence,[5]; buffer PBS + 0.01% Tween-20,29
same,FL1 GeoMean fluorescence,[5]; buffer PBS + 0.1% Pluronic,78.1
same,FL1 GeoMean fluorescence,[5]; buffer PBS,17.91
same,FL1 GeoMean fluorescence,[5]; [16],9.7
same,FL1 GeoMean fluorescence,[5]; buffer Sodium chloride,9.16
same,time for fluorescence signal to stabilize,[6],≤ 10 min
same,time the fluorescence signal was stable,[6],at least one
same,FL1 GeoMean fluorescence,[7]; buffer HBSS,42.1
same,FL1 GeoMean fluorescence,[7]; buffer PBS + 1 mM EDTA,70.92
same,FL1 GeoMean fluorescence,[7]; buffer PBS + 0.01% Tween-20,44.48
same,FL1 GeoMean fluorescence,[7]; buffer PBS + 0.1% Pluronic,136.43
same,FL1 GeoMean fluorescence,[7]; buffer PBS,30.25
same,FL1 GeoMean fluorescence,[7]; [16],11.52
same,FL1 GeoMean fluorescence,[7]; buffer Sodium chloride,12.43
same,Fluorescence,"[8]; CCCP No, Fixation agent Ethanol",135
same,Fluorescence,"[8]; CCCP No, Fixation agent Formaldehyde",936
same,Fluorescence,"[8]; CCCP No, Fixation agent None",1720
same,Fluorescence,"[8]; CCCP Yes (10 μM), Fixation agent Ethanol",53
same,Fluorescence,"[8]; CCCP Yes (10 μM), Fixation agent Formaldehyde",274
same,Fluorescence,"[8]; CCCP Yes (10 μM), Fixation agent None",110
same,"fluorescence signal of stain, S. aureus",[1]; [17],351.91
same,proliferation of S. aureus,[9],prevented proliferation
same,"fluorescence signal of stain, E. coli",[2]; [17],85.33
same,time for fluorescence signal to stabilize,[10],≤ 10 min
same,time the fluorescence signal was stable,[10],at least one
same,preferred concentration for staining,[11],about 1 uM
same,FL1 GeoMean fluorescence,[12]; buffer HBSS,902.22
same,FL1 GeoMean fluorescence,[12]; buffer PBS + 1 mM EDTA,57.75
same,FL1 GeoMean fluorescence,[12]; buffer PBS + 0.01% Tween-20,844.66
same,FL1 GeoMean fluorescence,[12]; buffer PBS + 0.1% Pluronic,470.35
same,FL1 GeoMean fluorescence,[12]; buffer PBS,902.15
same,FL1 GeoMean fluorescence,[12]; [16],943.79
same,FL1 GeoMean fluorescence,[12]; buffer Sodium chloride,951.93
same,FL1 GeoMean fluorescence,[13]; buffer HBSS,2168.52
same,FL1 GeoMean fluorescence,[13]; buffer PBS + 1 mM EDTA,1583.19
same,FL1 GeoMean fluorescence,[13]; buffer PBS + 0.01% Tween-20,2909.97
same,FL1 GeoMean fluorescence,[13]; buffer PBS + 0.1% Pluronic,1685.21
same,FL1 GeoMean fluorescence,[13]; buffer PBS,1976.41
same,FL1 GeoMean fluorescence,[13]; [16],2183.44
same,FL1 GeoMean fluorescence,[13]; buffer Sodium chloride,2171.61
same,concentration found to work well for staining,[14],50 to 100 nM
"C=C(C)[C@H]1Cc2c(ccc3c2O[C@@H]2COc4cc(OC)c(OC)cc4[C@@H]2C3=O)O1 [Rotenone, rotenone]","fluorescence signal after inhibitor treatment, S. aureus",[1]; [15],32.75
same,"fluorescence signal after inhibitor treatment, S. aureus",[1]; stained with compound (19),8.19
same,"fluorescence signal after inhibitor treatment, S. aureus",[1]; stained with compound (22),11.74
same,"fluorescence signal after inhibitor treatment, S. aureus",[1]; stained with compound (24),17.17
same,"fluorescence signal after inhibitor treatment, E. coli",[2]; [15],24.05
same,"fluorescence signal after inhibitor treatment, E. coli",[2]; stained with compound (19),20.56
same,"fluorescence signal after inhibitor treatment, E. coli",[2]; stained with compound (22),38.81
same,"fluorescence signal after inhibitor treatment, E. coli",[2]; stained with compound (24),44.66
